The series is described as follows: Solubility in water. The note with it: 20° C., 100 g of water.

These results are taken from US20250304811A1, “Ink Jet Ink Composition And Recording Method” (SEIKO EPSON CORPORATION, priority 2024, published 2025).

As for `COCCOC` [ethylene glycol dimethyl ether], the miscibility with water entry is given as “completely miscible with water”.
